In US5024839A, “Dactylocycline A and dactylocycline B” (E. R. Squibb & Sons, Inc., priority 1987, dated 1991):
≈ marks a conversion by molar mass, not a printed value.

Tests used:
Type in all cases: cell-based
[1] = tested on: gram-positive bacteria, including tetracycline-resistant bacteria; assay: Activity against gram-positive bacteria
Experimental: (§1) The following methodology was used to determine the minimum inhibitory concentration (hereinafter referred to as MIC) of the compounds of this invention. The test organisms were grown in 20 ml of Antibiotic Assay Broth (Difco) by inoculating the broth (in tubes) with a loopful of the organism from a BHI (Difco) agar slant. The inoculated tubes were incubated at 37° C. for 18 to 24 hours. These cultures are assumed to contain 10^9 colony forming units (CFU) per ml. The cultures were diluted 1:100 to give a final inoculum level of 10^7 CFU; dilutions were made with Yeast Beef Broth (Difco). The test compounds were dissolved in an appropriate diluent at a concentration of 1,000 μg/ml. Two-fold dilutions were made in Yeast Beef Broth (Difco) resulting in a range from 1000 μg/ml to 0.5 μg/ml. A 1.5 ml portion of each dilution was placed into individual petri dishes to which 13.5 ml of K-10 agar was added. The composition of K-10 agar is:
(§2) The final drug concentration in the agar ranged from 100 μg/ml to 0.05 μg/ml. Organism growth control plates containing agar only were prepared and inoculated before and after the test plates. The organisms were applied to agar surface of each plate with a Denly Multipoint Inoculator, which delivers approximately 10^4 CFU on the agar surface.
The plates were incubated at 37° C. for 18 hours and the MICs determined. […]

[2] = tested on: Staphylococcus aureus SGB 45; assay: MIC (agar dilution, K-10 agar)
Experimental: as §1, §2
(§3) The plates were incubated at 37° C. for 18 hours and the MICs determined. The MIC is the lowest concentration of compound inhibiting growth of the organism.
(§4) The test organisms chosen for this study are pairs of tetracycline-sensitive and tetracycline-resistant strains.

[3] = tested on: Staphylococcus epidermidis SC9052; assay: MIC (agar dilution, K-10 agar)
Experimental: as §1, §2, §3, §4

[4] = tested on: Staphylococcus epidermidis SC9087; assay: MIC (agar dilution, K-10 agar)
Experimental: as §1, §2, §3, §4

[5] = tested on: Streptococcus faecalis SC9011; assay: MIC (agar dilution, K-10 agar)
Experimental: as §1, §2, §3, §4

[6] = tested on: Staphylococcus aureus SC10016; assay: MIC (agar dilution, K-10 agar)
Experimental: as §1, §2, §3, §4

[7] = tested on: Streptococcus faecalis SC9776; assay: MIC (agar dilution, K-10 agar)
Experimental: as §1, §2, §3, §4

[8] = tested on: Staphylococcus aureus SC2399; assay: MIC (agar dilution, K-10 agar)
Experimental: as §1, §2, §3, §4

[9] = tested on: Staphylococcus aureus SGB 42; assay: MIC (agar dilution, K-10 agar)
Experimental: as §1, §2, §3, §4

[10] = Staphylococcus aureus SGB 45, K-10 agar, approximately 10^4 CFU, 37° C., 18 hours
[11] = Staphylococcus epidermidis SC9052, K-10 agar, approximately 10^4 CFU, 37° C., 18 hours
[12] = Staphylococcus epidermidis SC9087, K-10 agar, approximately 10^4 CFU, 37° C., 18 hours
[13] = Streptococcus faecalis SC9011, K-10 agar, approximately 10^4 CFU, 37° C., 18 hours
[14] = Staphylococcus aureus SC10016, K-10 agar, approximately 10^4 CFU, 37° C., 18 hours
[15] = Streptococcus faecalis SC9776, K-10 agar, approximately 10^4 CFU, 37° C., 18 hours
[16] = Staphylococcus aureus SC2399, K-10 agar, approximately 10^4 CFU, 37° C., 18 hours
[17] = Staphylococcus aureus SGB 42, K-10 agar, approximately 10^4 CFU, 37° C., 18 hours

Structure (SMILES)	activity against gram-positive bacteria [1]	MIC [2, 10]	MIC [3, 11]	MIC [4, 12]	MIC [5, 13]	MIC [6, 14]	MIC [7, 15]	MIC [8, 16]	MIC [9, 17]	MIC ([2]; Staphylococcus aureus, SGB45, 18 h)	MIC ([3]; Staphylococcus epidermidis, SC9052, 18 h)	MIC ([4]; Staphylococcus epidermidis, SC9087, 18 h)	MIC ([5]; Enterococcus faecalis, SC9011, 18 h)	MIC ([6]; Staphylococcus aureus, SC10016, 18 h)	MIC ([7]; Enterococcus faecalis, SC9776, 18 h)	MIC ([8]; Staphylococcus aureus, SC2399, 18 h)	MIC ([9]; Staphylococcus aureus, SGB42, 18 h)
COc1cc(O)c2c(c1Cl)[C@](C)(O[C@H]1C[C@](C)(NO)[C@@H](OC)[C@H](C)O1)[C@H]1C[C@@]3(O)[C@H](N(C)C)C(=O)C(C(N)=O)=C(O)[C@@]3(O)C(=O)C1=C2O [Dactylocycline A]	active against gram-positive bacteria, including tetracycline-resistant bacteria	3.1 µg/mL (≈ 4.44 µM)	6.3 µg/mL (≈ 9.02 µM)	3.1 µg/mL (≈ 4.44 µM)	25 µg/mL (≈ 35.8 µM)	6.3 µg/mL (≈ 9.02 µM)	25 µg/mL (≈ 35.8 µM)	1.6 µg/mL (≈ 2.29 µM)	1.6 µg/mL (≈ 2.29 µM)	–	–	–	–	–	–	–	–
COc1cc(O)c2c(c1Cl)C(C)(OC1CC(C)([N+](=O)[O-])C(OC)C(C)O1)C1CC3(O)C(N(C)C)C(=O)C(C(N)=O)=C(O)C3(O)C(=O)C1=C2O (centres unmarked) [Dactylocycline B]	active against gram-positive bacteria, including tetracycline-resistant bacteria	3.1 µg/mL (≈ 4.35 µM)	3.1 µg/mL (≈ 4.35 µM)	3.1 µg/mL (≈ 4.35 µM)	6.3 µg/mL (≈ 8.85 µM)	3.1 µg/mL (≈ 4.35 µM)	6.3 µg/mL (≈ 8.85 µM)	6.3 µg/mL (≈ 8.85 µM)	3.1 µg/mL (≈ 4.35 µM)	–	–	–	–	–	–	–	–
CN(C)[C@@H]1C(O)=C(C(N)=O)C(=O)[C@@]2(O)C(O)=C3C(=O)c4c(O)cccc4[C@@](C)(O)[C@H]3C[C@@H]12 [Tetracycline, reference compound]	–	–	–	–	–	–	–	–	–	100 µg/mL (≈ 225 µM)	0.8 µg/mL (≈ 1.8 µM)	50 µg/mL (≈ 113 µM)	1.6 µg/mL (≈ 3.6 µM)	100 µg/mL (≈ 225 µM)	> 100 µg/mL	0.4 µg/mL (≈ 0.9 µM)	0.2 µg/mL (≈ 0.45 µM)
